Data from BindingDB's records for doi:10.1021/jm00128a025 (Roche Research Center, 1989).

Assays:
[1] = Inhibition of platelet-activating factor receptor binding activity in dog platelets using [3H]-PAF as radioligand.
[2] = as above; remark: listed apart in the source

Row | SMILES | IC50 [1] [nM] | IC50 [2] [nM]
1 | O=C(NCCCCc1cccnc1)c1ccc(-c2cccc(O)c2)cc1 | 300 | –
2 | COc1cccc(-c2ccc(C(=O)NCCCCc3cccnc3)cc2)c1 | 280 | –
3 | COc1ccc(-c2ccc(C(=O)NCCCCc3cccnc3)cc2[N+](=O)[O-])cc1OC | 200 | –
4 | CCCc1cc(C(=O)N[C@H](C)CCCc2cccnc2)ccc1-c1ccc(OC)c(OC)c1 | 50 | –
5 | COc1ccc(-c2ccc(C(=O)NCCCCc3cccnc3)cc2-c2ccc(OC)cc2)cc1 | 125 | –
6 | C[C@H](CCCc1cccnc1)NC(=O)c1ccc(-c2ccccc2)c(-c2ccccc2)c1 | 50 | –
7 | C=CCc1cc(C(=O)N[C@H](C)CCCc2cccnc2)ccc1-c1ccc(OC)c(OC)c1 | 80 | –
8 | COc1ccc(-c2ccc(C(=O)N[C@H](C)CCCc3cccnc3)cc2Br)cc1OC | 180 | –
9 | Cc1ccc(-c2ccc(C(=O)NCCCCc3cccnc3)cc2)cc1C | 200 | –
10 | COc1ccc(-c2ccc(C(=S)N[C@H](C)CCCc3cccnc3)cc2)cc1OC | 60 | –
11 | COc1ccc(-c2ccc(C(=O)NCCCCc3cccnc3)cc2Br)cc1OC | 220 | –
12 | COc1ccc(-c2ccc(C(=O)N[C@H](C)CCCc3cccnc3)cc2[N+](=O)[O-])cc1OC | 200 | –
13 | COc1ccc(-c2ccc(C(=O)NCCCCc3cccnc3)cc2)cc1OC | 400 | –
14 | COc1ccc(-c2ccc(C(=O)NCCCCc3cccnc3)cc2OC)cc1OC | 300 | –
15 | Cc1cccc(-c2ccc(C(=O)NCCCCc3cccnc3)cc2)c1 | 500 | –
16 | COc1cccc(-c2ccc(C(=O)N[C@H](C)CCCc3cccnc3)cc2)c1 | 20 | –
17 | O=C(NCCCCc1cccnc1)c1ccc(-c2cccc(OC3=CC=CC=CC3)c2)cc1 | – | 700
18 | O=C(NCCCCc1cccnc1)c1ccc(-c2cccc(F)c2)c(F)c1 | 2100 | –
19 | CCc1cc(C(=O)N[C@H](C)CCCc2cccnc2)ccc1-c1ccc(OC)c(OC)c1 | 4 | –
